The results in this text go back to patent publication US20260015358A1, “BICYCLIC DERIVATIVES, COMPOSITIONS AND USES THEREOF” (Danatlas Pharmaceuticals Co., Ltd., priority 2023, published 2026).

Some results are limits rather than exact numbers.

Sequence of WRN [UniPro: Q14191 (WRN_HUMAN), N500-C946] (Q14191 500-946): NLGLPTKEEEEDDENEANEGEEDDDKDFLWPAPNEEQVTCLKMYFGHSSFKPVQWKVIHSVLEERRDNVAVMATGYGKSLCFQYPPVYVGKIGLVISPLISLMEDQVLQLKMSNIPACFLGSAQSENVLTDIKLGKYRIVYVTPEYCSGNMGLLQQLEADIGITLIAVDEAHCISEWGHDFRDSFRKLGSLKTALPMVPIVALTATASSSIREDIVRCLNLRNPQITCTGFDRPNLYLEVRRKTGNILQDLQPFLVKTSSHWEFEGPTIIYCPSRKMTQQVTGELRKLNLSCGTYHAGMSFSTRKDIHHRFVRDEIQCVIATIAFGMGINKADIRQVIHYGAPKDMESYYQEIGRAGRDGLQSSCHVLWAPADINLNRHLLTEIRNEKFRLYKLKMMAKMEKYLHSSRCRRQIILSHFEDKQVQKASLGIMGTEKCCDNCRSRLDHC

The target in this test is WRN [UniPro: Q14191 (WRN_HUMAN), N500-C946] (Homo sapiens (Human), UniProt Q14191). Nature of the test: WRN unwinding assay (FORKF DNA, fluorescence). Particulars: Table 14. Type of test: biochemical. On the procedure:
WRN unwinding assay was initiated to evaluate potential inhibitory effect of compounds for WEN helicase activity. WRN [UniPro: Q14191 (WRN_HUMAN), N500-C946] was expressed and purified in insect system and stored at −80° C. in aliquots. […] Compounds dissolved in DMSO (Sigma, D8418) were plated into a 96-well intermediate plate (BioFil, VWP-032-096) for 3-fold serial titration for 10 points using DMSO, and well-to-well transfer the titrated compounds into another 96-well intermediate plate including assay buffer in advance. Shake the 96-well intermediate plate at 600 rpm for 10 min. to fully mix. Specifically, a 3× working mixture of WRN was diluted to a concentration of 60 nM in assay buffer. […] After centrifuging at 1000 rpm and shaking at 500 rpm, the assay plate was pre-incubated for 30 min. Then, […] 3×FORKF DNA and ATP working mixture was dispensed into assay plate. Plate was sealed, centrifuged and incubated for an additional 40 min. at 25° C. […] Each concentration of compound was tested in duplicates in the assay plate. Average fluorescence signal of high control (Wells with 1% DMSO) was calculated as High Control (HC). Average fluorescence signal of low control (Wells with no WRN protein) was calculated as Low control (LC).
IC50 values were determined by fitting the data to the standard 4 parameters with Hill Slope using GraphPad Prism software.
Regarding `CCc1c(N2CCN(C(=O)c3cnc4ncnn4c3O)CC2)c(=O)n2nc(C3=CCOCC3)nc2n1CC(=O)Nc1ccc(C(F)(F)F)cc1Cl` [Example 52, N-(2-Chloro-4-(trifluoromethyl)phenyl)-2-(2-(3,6-dihydro-2H-pyran-4-yl)-5-ethyl-6-(4-(7-hydroxy-[1,2,4]triazolo[1,5-a]pyrimidine-6-carbonyl)piperazin-1-yl)-7-oxo-[1,2,4]triazolo[1,5-a]pyrimidin-4(7H)-yl)acetamide], the IC50 – broadly, the concentration needed to halve the response being measured – was > 1000 nM.
Then `CCc1c(N2CCN(C(=O)CNC(=O)c3ccc(Cl)cc3)CC2)c(=O)n2nc(C3=CCOCC3)nc2n1CC(=O)Nc1ccc(C(F)(F)F)cc1Cl` [Example 164, 4-Chloro-N-(2-(4-(4-(2-((2-chloro-4-(trifluoromethyl)phenyl)amino)-2-oxoethyl)-2-(3,6-dihydro-2H-pyran-4-yl)-5-ethyl-7-oxo-4,7-dihydro-[1,2,4]triazolo[1,5-a]pyrimidin-6-yl)piperazin-1-yl)-2-oxoethyl)benzamide], with 100 to 1000 nM; and `CCc1c(N2CCN(C(=O)c3c[nH]c(=O)[nH]3)CC2)c(=O)n2nc(C3=CCOCC3)nc2n1CC(=O)Nc1ccc(C(F)(F)F)cc1Cl` [Example 316, N-(2-Chloro-4-(trifluoromethyl)phenyl)-2-(2-(3,6-dihydro-2H-pyran-4-yl)-5-ethyl-7-oxo-6-(4-(2-oxo-2,3-dihydro-1H-imidazole-4-carbonyl)piperazin-1-yl)-[1,2,4]triazolo[1,5-a]pyrimidin-4(7H)-yl)acetamide], with 100 to 1000 nM.
The compound `CCc1c(N2CCN(C(=O)CN)CC2)c(=O)n2nc(C3=CCOCC3)nc2n1CC(=O)Nc1ccc(C(F)(F)F)cc1Cl` [Example 38, N-(2-Chloro-4-(trifluoromethyl)phenyl)-2-(2-(3,6-dihydro-2H-pyran-4-yl)-5-ethyl-6-(4-glycylpiperazin-1-yl)-7-oxo-[1,2,4]triazolo[1,5-a]pyrimidin-4(7H)-yl)acetamide] had a concentration for half-maximal inhibition (IC50) of 100 to 1000 nM.
The same measure for `CCc1c(N2CCN(C(=O)CNC(=O)c3ccccc3F)CC2)c(=O)n2nc(N3CC(OC)C3)nc2n1CC(=O)Nc1ccc(C(F)(F)F)cc1Cl` [Example 242, N-(2-(4-(4-(2-((2-Chloro-4-(trifluoromethyl)phenyl)amino)-2-oxoethyl)-5-ethyl-2-(3-methoxyazetidin-1-yl)-7-oxo-4,7-dihydro-[1,2,4]triazolo[1,5-a]pyrimidin-6-yl)piperazin-1-yl)-2-oxoethyl)-2-fluorobenzamide]: 100 to 1000 nM.
Then `CCNC(=O)N1CCN(c2c(CC)n(CC(=O)Nc3ccc(C(F)(F)F)cc3Cl)c3nc(C4=CCOCC4)nn3c2=O)CC1` [Example 15, 4-(4-(2-((2-Chloro-4-(trifluoromethyl)phenyl)amino)-2-oxoethyl)-2-(3,6-dihydro-2H-pyran-4-yl)-5-ethyl-7-oxo-4,7-dihydro-[1,2,4]triazolo[1,5-a]pyrimidin-6-yl)-N-ethylpiperazine-1-carboxamide], with 100 to 1000 nM; and `CCc1c(N2CCN(C(=O)N(C)C)CC2)c(=O)n2nc(C3=CCOCC3)nc2n1CC(=O)Nc1ccc(C(F)(F)F)cc1Cl` [Example 10, 4-(4-(2-((2-Chloro-4-(trifluoromethyl)phenyl)amino)-2-oxoethyl)-2-(3,6-dihydro-2H-pyran-4-yl)-5-ethyl-7-oxo-4,7-dihydro-[1,2,4]triazolo[1,5-a]pyrimidin-6-yl)-N,N-dimethylpiperazine-1-carboxamide], with > 1000 nM; and `CCc1c(N2CCN(C(=O)Nc3c(C(F)(F)F)ncn3Cc3ccc(OC)cc3)CC2)c(=O)n2nc(C3=CCOCC3)nc2n1CC(=O)Nc1ccc(C(F)(F)F)cc1Cl` [Example 26, 4-(4-(2-((2-Chloro-4-(trifluoromethyl)phenyl)amino)-2-oxoethyl)-2-(3,6-dihydro-2H-pyran-4-yl)-5-ethyl-7-oxo-4,7-dihydro-[1,2,4]triazolo[1,5-a]pyrimidin-6-yl)-N-(1-(4-methoxybenzyl)-4-(trifluoromethyl)-1H-imidazol-5-yl)piperazine-1-carboxamide], with > 1000 nM.
The same measure for `CCc1c(N2CCN(C(=O)CNC(=O)c3c(O)cccc3F)CC2)c(=O)n2nc(C3=CCOCC3)nc2n1CC(=O)Nc1ccc(C(F)(F)F)cc1Cl` [Example 294, N-(2-(4-(4-(2-((2-Chloro-4-(trifluoromethyl)phenyl)amino)-2-oxoethyl)-2-(3,6-dihydro-2H-pyran-4-yl)-5-ethyl-7-oxo-4,7-dihydro-[1,2,4]triazolo[1,5-a]pyrimidin-6-yl)piperazin-1-yl)-2-oxoethyl)-2-fluoro-6-hydroxybenzamide]: 100 to 1000 nM.
On to `CCc1c(N2CCN(C(=O)CNC(=O)c3ccccc3F)CC2)c(=O)n2nc(C3=CCOCC3)nc2n1CC(=O)Nc1nc(C)cs1` [Example 159, N-(2-(4-(2-(3,6-Dihydro-2H-pyran-4-yl)-5-ethyl-4-(2-((4-methylthiazol-2-yl)amino)-2-oxoethyl)-7-oxo-4,7-dihydro-[1,2,4]triazolo[1,5-a]pyrimidin-6-yl)piperazin-1-yl)-2-oxoethyl)-2-fluorobenzamide], for which the IC50 lay within 100 to 1000 nM.
Turning to `CCc1c(N2CC3CN(C(=O)CNC(=O)c4ccccc4F)CC3C2)c(=O)n2nc(C3=CCOCC3)nc2n1CC(=O)Nc1ccc(C(F)(F)F)cc1Cl` (stereo not drawn) [Example 140, N-(2-(5-(4-(2-((2-Chloro-4-(trifluoromethyl)phenyl)amino)-2-oxoethyl)-2-(3,6-di hydro-2H-pyran-4-yl)-5-ethyl-7-oxo-4,7-dihydro-[1,2,4]triazolo[1,5-a]pyrimidin-6-yl)hexahydropyrrolo[3,4-c]pyrrol-2(1H)-yl)-2-oxoethyl)-2-fluorobenzamide], the IC50 was > 1000 nM.
The compound `CCNS(=O)(=O)N1CCN(c2c(CC)n(CC(=O)Nc3ccc(C(F)(F)F)cc3Cl)c3nc(C4=CCOCC4)nn3c2=O)CC1` [Example 33, N-(2-Chloro-4-(trifluoromethyl)phenyl)-2-(2-(3,6-dihydro-2H-pyran-4-yl)-5-ethyl-6-(4-(N-ethylsulfamoyl)piperazin-1-yl)-7-oxo-[1,2,4]triazolo[1,5-a]pyrimidin-4(7H)-yl)acetamide] returned an IC50 of 100 to 1000 nM.
Then `CCc1c(N2CCN(C(=O)CNC(=O)c3ccccc3F)CC2)c(=O)n2nc(C3=CCOCC3)nc2n1CC(=O)Nc1nnc(C(F)(F)F)s1` [Example 155, N-(2-(4-(2-(3,6-Dihydro-2H-pyran-4-yl)-5-ethyl-7-oxo-4-(2-oxo-2-((5-(trifluoromethyl)-1,3,4-thiadiazol-2-yl)amino)ethyl)-4,7-dihydro-[1,2,4]triazolo[1,5-a]pyrimidin-6-yl)piperazin-1-yl)-2-oxoethyl)-2-fluorobenzamide], with > 1000 nM; and `CCc1c(N2CCN(C(=O)CNC(=O)c3ccccc3N3CCOCC3)CC2)c(=O)n2nc(N3CCOCC3)nc2n1CC(=O)Nc1ccc(C(F)(F)F)cc1Cl` [Example 247, N-(2-(4-(4-(2-((2-Chloro-4-(trifluoromethyl)phenyl)amino)-2-oxoethyl)-5-ethyl-2-morpholino-7-oxo-4,7-dihydro-[1,2,4]triazolo[1,5-a]pyrimidin-6-yl)piperazin-1-yl)-2-oxoethyl)-2-morpholinobenzamide], with 100 to 1000 nM.
Consider `CCc1c(N2CCN(C(=O)CNC(=O)c3cccc(Cl)c3)CC2)c(=O)n2nc(C3=CCOCC3)nc2n1CC(=O)Nc1ccc(C(F)(F)F)cc1Cl` [Example 175, 3-Chloro-N-(2-(4-(4-(2-((2-chloro-4-(trifluoromethyl)phenyl)amino)-2-oxoethyl)-2-(3,6-dihydro-2H-pyran-4-yl)-5-ethyl-7-oxo-4,7-dihydro-[1,2,4]triazolo[1,5-a]pyrimidin-6-yl)piperazin-1-yl)-2-oxoethyl)benzamide], for which the half-inhibitory concentration (IC50) fell in the range of 100 to 1000 nM.
The same measure for `O=C(Cn1c(O)c(N2CCN(C(=O)CNC(=O)c3ccccc3)CC2)c(=O)n2nc(C3=CCOCC3)nc12)Nc1ccc(C(F)(F)F)cc1Cl` [Example 142, N-(2-(4-(4-(2-((2-Chloro-4-(trifluoromethyl)phenyl)amino)-2-oxoethyl)-2-(3,6-dihydro-2H-pyran-4-yl)-5-hydroxy-7-oxo-4,7-dihydro-[1,2,4]triazolo[1,5-a]pyrimidin-6-yl)piperazin-1-yl)-2-oxoethyl)benzamide]: 100 to 1000 nM; for `CCc1c(N2CCN(C(=O)C(C)O)CC2)c(=O)n2nc(C3=CCOCC3)nc2n1CC(=O)Nc1ccc(C(F)(F)F)cc1Cl` (stereo not drawn) [Example 12, N-(2-Chloro-4-(trifluoromethyl)phenyl)-2-(2-(3,6-dihydro-2H-pyran-4-yl)-5-ethyl-6-(4-(2-hydroxypropanoyl)piperazin-1-yl)-7-oxo-[1,2,4]triazolo[1,5-a]pyrimidin-4(7H)-yl)acetamide]: 100 to 1000 nM; for `CCc1c(N2CCN(C(=O)CNS(=O)(=O)CC)CC2)c(=O)n2nc(C3=CCOCC3)nc2n1CC(=O)Nc1ccc(C(F)(F)F)cc1Cl` [Example 39, N-(2-Chloro-4-(trifluoromethyl)phenyl)-2-(2-(3,6-dihydro-2H-pyran-4-yl)-5-ethyl-6-(4-((ethylsulfonyl)glycyl)piperazin-1-yl)-7-oxo-[1,2,4]triazolo[1,5-a]pyrimidin-4(7H)-yl)acetamide]: 100 to 1000 nM.
